Data published in patent publication US9951025B2, “Halogenopyrazoles as inhibitors of thrombin” (VERSEON CORPORATION, priority 2013, dated 2018).
Non-standard residues stand in square brackets, D forms with d. No end group written: not given here. Oic = O=C(O)[C@@H]1C[C@@H]2CCCC[C@@H]2N1; Phe(4-Me) = Cc1ccc(C[C@H](N)C(=O)O)cc1

Legend:
[1] = after 7 weeks of administration; cited from earlier work
malignant breast tumors = conditions: cited from earlier work
lung fibroblasts = conditions: mouse, in vivo; cited from earlier work
lung metastases = conditions: administered prior to cancer cell inoculation; cited from earlier work
[2] = in vivo; cited from earlier work
[3] = intrathecal, cited from earlier work
[4] = cited from earlier work
[5] = tested on: prostate cancer cell line PC-3; conditions: PC-3, concentration dependent manner; cited from earlier work
tumor = conditions: cited from earlier work
glioma = conditions: systemic use, rat glioma models; cited from earlier work
Human thrombin = molecular target: T1, Human thrombin (Homo sapiens, UniProt P00734); assay: thrombin protease inhibition assay, chromogenic substrate S-2238; format: biochemical; conditions: 3 nM human thrombin, 125 μM S-2238, 10 min pre-incubation, RT
T1 construct: purchased Haematologic Technologies Inc
Procedure: Compounds described herein can be assayed, by a variety of methods known in the art and described herein, for inhibition of biological activity, e.g., protease activity, of a variety of proteins, e.g., thrombin.
The thrombin activity reported herein (e.g., Table A) was obtained as follows. […] Thrombin was assayed in buffer containing 0.05 M Tris (pH 7.4), 0.015 M NaCl and 0.01% PEG-8000. The final concentration of enzyme used was 3 nM thrombin. […] All assays were performed in 96-well microtiter plates at room temperature (RT). […] Inhibitor IC50 values were determined by adding test compound as ten point, three-fold serial dilutions in buffer solution, as known in the art. The plate was read at 10 minutes after substrate addition. The IC50 was calculated by plotting the percent (%) inhibition against compound concentration and fitting the data to a constrained four parameter sigmoidal curve, as known in the art.

CC(=O)Nc1c(-c2ccccc2)cccc1S(=O)(=O)N[C@@H](CCCc1ccc(N)cn1)C(=O)N1CCC(=C(F)F)CC1 [SSR182289]
liver fibrogenesis [1]: decreased liver fibrogenesis significantly

CCCCCCOC(=O)NC(=N)c1ccc(NCc2nc3cc(C(=O)N(CCC(=O)OCC)c4ccccn4)ccc3n2C)cc1 [dabigatran etexilate]
invasion and metastasis of malignant breast tumors (malignant breast tumors; mouse, in vivo): inhibited | reduction of tumor cells in the blood and liver micrometastases (malignant breast tumors; mouse, in vivo): 50-60% | weight loss (malignant breast tumors; treated mice, 4 weeks): no weight loss | profibrotic events in lung fibroblasts, including production of collagen and connective tissue growth factor (lung fibroblasts): reduced

hirudin
number of lung metastases (lung metastases): dramatically reduced | disease severity [2]: dramatic improvement | pain responses ([3]; for 7 days): curbed | development of neuropathic pain [3]: prevented

N=C(N)c1ccc(CNC(=O)[C@@H]2CCN2C(=O)[C@H](NCC(=O)O)C2CCCCC2)cc1 [melagatran]
kidney graft survival ([4]; at 3 months): drastically improved | ischemia reperfusion injury ([4]; kidney transplant model): greatly reduced

[dR][Oic]P[dA][Phe(4-Me)]
thrombin-stimulated invasion [5]: block | overall tumor weight (tumor; compared to untreated mice): reduced | rate of tumor growth (tumor; mice dosed through drinking water): reduced

CC1CNc2c(cccc2S(=O)(=O)N[C@@H](CCCNC(=N)N)C(=O)N2CC[C@@H](C)C[C@@H]2C(=O)O)C1 (some centres unmarked) [argatroban]
survival time (glioma): prolonged | tumor mass (glioma): reduced

COc1ccccc1C(=O)n1nc(C2CCN(S(=O)(=O)c3cccc4c(N(C)C)cccc34)CC2)c(F)c1NCc1ccc(Cl)s1 [Compound 40, N-[(5-chlorothiophen-2-yl)methyl]-3-(1-[5-(dimethylamino)naphthalen-1-yl]sulfonylpiperidin-4-yl)-4-fluoro-1-(2-methoxybenzoyl)-1H-pyrazol-5-amine]
IC50 (Human thrombin): > 1000 nM

COc1ccccc1C(=O)n1nc(-c2ccccc2)c(F)c1NCc1ccccc1 [Compound 60, N-benzyl-4-fluoro-1-(2-methoxybenzoyl)-3-phenyl-1H-pyrazol-5-amine]
IC50 (Human thrombin): < 100 nM

COc1ccccc1C(=O)n1nc(-c2ccccc2)c(F)c1NCc1ccc(Cl)s1 [Compound 44, N-[(5-chlorothiophen-2-yl)methyl]-4-fluoro-1-(2-methoxybenzoyl)-3-phenyl-1H-pyrazol-5-amine]
IC50 (Human thrombin): < 100 nM

O=C(c1cccc2c1OCCO2)n1nc(C2CCNCC2)c(F)c1NCc1ccc(Cl)s1 [Compound 33, N-[(5-chlorothiophen-2-yl)methyl]-1-(2,3-dihydro-1,4-benzodioxine-5-carbonyl)-4-fluoro-3-(piperidin-4-yl)-1H-pyrazol-5-amine]
IC50 (Human thrombin): < 100 nM

O=C(c1cccc2c1OCCO2)n1nc(NCc2ccc(Cl)s2)c(F)c1C1CCOCC1 [Compound 35, N-[(5-chlorothiophen-2-yl)methyl]-1-(2,3-dihydro-1,4-benzodioxine-5-carbonyl)-4-fluoro-5-(oxan-4-yl)-1H-pyrazol-3-amine]
IC50 (Human thrombin): > 1000 nM

O=C(n1nc(C2CCOCC2)c(F)c1NCc1ccc(Cl)s1)C1(CO)CC1 [Compound 61, [1-(5-[(5-chlorothiophen-2-yl)methyl]amino-4-fluoro-3-(oxan-4-yl)-1H-pyrazole-1-carbonyl)cyclopropyl]methanol]
IC50 (Human thrombin): < 100 nM

CN(C)c1cccc2c(S(=O)(=O)Oc3ccc(C(=O)n4nc(-c5ccccc5)c(F)c4NCc4ccc(Cl)s4)cc3)cccc12 [Compound 27, 4-(5-[(5-chlorothiophen-2-yl)methyl]amino-4-fluoro-3-phenyl-1H-pyrazole-1-carbonyl)phenyl 5-(dimethylamino)naphthalene-1-sulfonate]
IC50 (Human thrombin): > 1000 nM

CC1(C(=O)n2nc(-c3ccccc3)c(F)c2NCc2ccc(Cl)s2)COC1 [Compound 46, N-[(5-chlorothiophen-2-yl)methyl]-4-fluoro-1-(3-methyloxetane-3-carbonyl)-3-phenyl-1H-pyrazol-5-amine]
IC50 (Human thrombin): > 1000 nM

COc1ccccc1C(=O)n1nc(-c2ccccn2)c(F)c1NCc1ccccc1 [Compound 59, N-benzyl-4-fluoro-1-(2-methoxybenzoyl)-3-(pyridin-2-yl)-1H-pyrazol-5-amine]
IC50 (Human thrombin): < 100 nM

COc1ccccc1C(=O)n1nc(NCc2ccc(Cl)s2)c(F)c1C1CCN(S(=O)(=O)c2cccc3c(N(C)C)cccc23)CC1 [Compound 55, N-[(5-chlorothiophen-2-yl)methyl]-5-(1-[5-(dimethylamino)naphthalen-1-yl]sulfonylpiperidin-4-yl)-4-fluoro-1-(2-methoxybenzoyl)-1H-pyrazol-3-amine]
IC50 (Human thrombin): > 1000 nM
